The values that follow come from PubChem BioAssay AID179 (DTP/NCI, 2004).

The test system of the experiment is CEM cells HIV-1 protection, formazan growth assay. Kind of experiment: NCI AIDS Antiviral Assay. The conditions noted are these: for IC50: measured here: growth of uninfected CEM cells. In outline: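 Category rules: moderately active means at least 50% protection on retest, and confirmed active means 100% protection reproducibly. The underlying data came from a formazan growth assay in HIV-1-infected CEM cells.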

Where “and” joins values, the source holds several entries; their conditions need not be identical. Equal values may be shown once. Calls of active or inactive are those of the source.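 Rule for the calls: active = compounds giving half or more protection of infected cells from virus-caused growth loss, again on retest; inactive = the rest.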

As a reminder, the EC50 is the concentration that produces a half-maximal response. The term IC50 denotes the concentration that gives 50% inhibition. Read a high IC50 as lower potency. Turning to `CC(=O)OCC1OC(OC2=C(c3ccccc3)C(=O)C(OC3OC(COC(C)=O)C(OC(C)=O)C(OC(C)=O)C3OC(C)=O)=C(c3ccccc3)C2=O)C(OC(C)=O)C(OC(C)=O)C1OC(C)=O` (stereo not drawn), the EC50 was > 33.9 µM and the IC50 was 5.89 µM.
Turning to `CC(=O)Oc1cc2c(cc1OC(C)=O)[C@H]1CC[C@]3(C)[C@@H](OC(C)=O)CC[C@H]3[C@@H]1CC2`, the EC50 is > 200 µM and the IC50 turned out to be 10 µM.
The corresponding values for `Cc1ccc(Nc2nc(C)c(C(=O)CC(=O)C(=O)Nc3ccc(Cl)cc3)s2)cc1` are > 200 µM and > 200 µM.
The corresponding values for `COC(=O)C(CC(=O)Nc1ccc(C)cc1)C(=O)C(=O)Nc1c(C(C)C)cccc1C(C)C` (stereo not drawn) are > 79.4 µM and > 79.4 µM.
The corresponding values for `O=C1/C(=C/c2ccccc2)CCCC1CN1CCCCC1` (stereo not drawn) are > 200 µM and 0.676 µM.
As to `CCNc1ccccc1S(=O)(=O)c1ccccc1[N+](=O)[O-]`, the EC50 was > 0.741 µM.
With `CCOC1CSc2ccccc2C(c2ccccc2)=N1` (stereo not drawn), the EC50 is 195 µM and the IC50 was > 200 µM.
For `O=C1[C@H]2ON(c3ccccc3)C(c3ccccc3F)[C@H]2C(=O)N1c1ccc(Cc2ccc(N3C(=O)[C@@H]4ON(c5ccccc5)C(c5ccccc5F)[C@@H]4C3=O)cc2)cc1` (stereo partly drawn) the same measures were > 9.12 µM and > 9.12 µM.
The corresponding values for `Cc1ccc2c(c1C)CC1(Cc3c(ccc4c3CCC4)C1=O)C2=O` (stereo not drawn) are > 100 µM and > 100 µM.
`Nc1nc2ncn(CCO)c2c(=O)[nH]1`: the EC50 was > 93.3 µM and the IC50 is > 93.3 µM.
Consider `O=c1c(-c2ccc3c(c2)OCO3)coc2c3c(ccc12)OCO3`, for which the result was inactive.
For the compound `CS(=O)(=O)OC[C@@H]1OCO[C@H]1COS(C)(=O)=O`, the EC50 was > 200 µM and the IC50 is > 200 µM.
For the compound `O=C(Cn1c(=O)sc2ccc(Cl)cc21)N1CCN(CCO)CC1`, the EC50 is > 200 µM and the IC50 is > 200 µM.
With `COC(=O)CC1CCC(c2ccn(S(=O)(=O)c3ccccc3)c2)=NO1` (stereo not drawn), the EC50 is > 200 µM and the IC50 is > 200 µM.
For `Cc1sc(/N=C/C2=C(O)CC(C)(C)CC2=O)nc1-c1ccccc1`, the EC50 is > 200 µM and the IC50 was 64.6 µM.
Turning to `CC1=C/C(=C(\c2cc(C)c(O)c(Br)c2)c2ccccc2S(=O)(=O)O)C=C(Br)C1=O`, the outcome was inactive.
`Nc1cc(N)c(N=Nc2ccc(/C=C/c3ccc(N=Nc4c(N)cc(N)cc4C(=O)O)cc3S(=O)(=O)O)c(S(=O)(=O)O)c2)c(C(=O)O)c1`: the EC50 is > 178 µM and the IC50 worked out at 170 µM.
For `COCCOCCOCCC(=O)NC1CC2CCC1(C)C2(C)C` (stereo not drawn) the same measures were > 200 µM and > 200 µM.
With `NC(=O)N/N=C1/CCN2CCCc3cccc1c32`, the EC50 was > 200 µM and the IC50 was > 200 µM.
Turning to `CC(C)CCC[C@@H](C)[C@H]1CC[C@H]2[C@@H]3CCC4C[C@@H](CCC=C(c5cc(Cl)c(OCc6ccccc6C(=O)O)c(C(=O)O)c5)c5cc(Cl)c(OCc6ccccc6C(=O)O)c(C(=O)O)c5)CC[C@]4(C)[C@H]3CC[C@]12C` (stereo partly drawn), the EC50 was 44.7 µM and the IC50 was > 200 µM.
The corresponding values for `CC1(C)N=C(/C=N/O)C(C)(C)N1O` are > 200 µM and > 200 µM.
Consider `COc1cc(CNc2ccc(SC)cc2)cc(OC)c1OC`, for which the EC50 was > 100 µM; the IC50 is 4.68 µM and 4.79 µM.
For the compound `C/C(=N\NC(=O)c1cccc2c(=O)c3ccccc3[nH]c12)C1CC[C@H]2[C@@H]3CCC4=C/C(=N\NC(=O)c5cccc6c(=O)c7ccccc7[nH]c56)CC[C@]4(C)[C@H]3CC[C@]12C` (stereo partly drawn), the EC50 is > 50.1 µM and the IC50 is > 50.1 µM.
As for `O=C1C=C(c2ccccc2)OC1(Cl)c1ccccc1` (stereo not drawn), the EC50 is > 200 µM and the IC50 is 38 µM.
Consider `Cc1cn(COCCSCc2ccccc2)c(=O)[nH]c1=O`, for which the EC50 amounted to 58.9 µM and the IC50 was > 200 µM.
For `CC1=Nc2cc(C)c(C)cc2NC(=O)C1` the same measures were > 200 µM and > 200 µM.
The corresponding values for `CC(C)=CCNc1nc(Cl)nc2nc[nH]c12` are > 200 µM and 57.5 µM.
For `Cn1cc(NC(=O)c2cc(NC(=O)CCCCCCCCC(=O)Nc3cc(C(=O)Nc4cc(C(=O)NCCC(N)N)n(C)c4)n(C)c3)cn2C)cc1C(=O)NCCC(=N)N` the same measures were > 28.8 µM and 12.6 µM.
Turning to `ClCc1c(-c2ccccc2)nn(-c2ccccc2)c1CCl`, the EC50 is > 200 µM and the IC50 came to 6.17 µM.
For `C#CCNC(=O)NC(CCCNC(=O)OCc1ccccc1)C(=O)OCc1ccccc1` (stereo not drawn) the same measures were > 83.2 µM and > 83.2 µM.
For `Oc1c(O)c(Cc2ccccc2)c(Cc2ccccc2)c(Cc2ccccc2)c1Cc1ccccc1` the same measures were > 200 µM and 32.4 µM.
For the compound `CN(C)CCCCN1c2ccccc2Sc2ccc(N=[N+]=[N-])cc21`, the EC50 is > 200 µM and the IC50 was 3.24 µM.
Turning to `COC(c1ccc(C(C)(C)C)cc1)(c1ccc(C(C)(C)C)cc1)c1cc(C(O)(c2cc(C(OC)(c3ccc(C(C)(C)C)cc3)c3ccc(C(C)(C)C)cc3)c(C)cc2C)c2cc(C(OC)(c3ccc(C(C)(C)C)cc3)c3ccc(C(C)(C)C)cc3)c(C)cc2C)c(C)cc1C`, the result was inactive.
Take `O=C1CC2c3c(OCc4ccccc4)cccc3OC2O1` (stereo not drawn): the EC50 is > 47.9 µM and the IC50 was > 47.9 µM.
Consider `COc1ccc(C2SCC(=O)N2c2ccc(-n3c(-c4ccccc4)nc4ccccc4c3=O)cc2)cc1OC` (stereo not drawn), for which the EC50 is > 200 µM and the IC50 was > 200 µM.
Regarding `COc1ccccc1C(=O)Nc1ccc(Cl)c(C(=O)OC(C)C)c1`, the result was active.
For `N=C(OC1CCCCC1)N1CCOCC1`, the EC50 was > 200 µM and the IC50 was > 200 µM.
As for `COc1ccc([N+](=O)[O-])c2c(NCCCN(C)C)c3ccccc3nc12`, the EC50 is > 0.2 µM and the IC50 was 0.138 µM.
For `Cc1c(-c2cnccn2)ssc1=S` the same measures were > 200 µM and 102 µM.
Consider `C[C@]12C=CC(=O)C=C1[C@@H](F)C[C@H]1[C@@H]3CC[C@](O)(C(=O)CO)[C@@]3(C)C[C@H](O)[C@@]12F`, for which the result was inactive.
Take `CC(=O)OC1CC2C(C)(C)CCCC2(C)C2C(=O)C(O)=C(C(C)C)C(=O)C12` (stereo not drawn): the EC50 was > 200 µM and the IC50 turned out to be 2.82 µM.
The corresponding values for `COc1cccc(C[C@H]2C(=O)OC[C@@H]2Cc2ccc(OC)c(OC)c2)c1` are > 200 µM and 57.5 µM.
For `C1CSCCCSCCCSCCCSCCCSC1` the same measures were > 14.1 µM and > 14.1 µM.
Turning to `CN(C)c1cc2c3c(c1)CCCN3CCC2`, the EC50 is > 200 µM and the IC50 was determined as 11.5 µM.
The corresponding values for `C[C@H]1Oc2c3c(c4ccc(=O)oc4c2C(=O)[C@@H]1C)OC(C)(C)C=C3` are > 200 µM and > 200 µM.
The corresponding values for `C[N+]12CCCCC1C(CN1C(=O)Cc3c4ccccc4c(c4ccccc34)CC1=O)CCC2` (stereo not drawn) are > 200 µM and > 200 µM.
The corresponding values for `O/N=C1\C(=C\c2ccc3c(c2)OCCO3)CCCC1C(NO)c1ccc2c(c1)OCCO2` (stereo not drawn) are > 16.6 µM and > 16.6 µM.
On to `Cn1cc(C=O)c2nccnc21`, for which the EC50 was > 1050 µM and the IC50 is > 1050 µM.
As to `CC(C)(C)C1CC[C@H]2c3c([nH]c4ccccc34)[C@H]3C(=O)N(c4ccc(F)cc4)C(=O)[C@H]3[C@H]2C1` (stereo partly drawn), the EC50 is > 11.7 µM and the IC50 is > 11.7 µM.
In the case of `CCc1c(OC)oc(CCCCCCCCCC(C)C(C)=O)c(C)c1=O` (stereo not drawn), the EC50 is > 25.1 µM and the IC50 stood at 0.0372 µM.
The corresponding values for `COc1ccc(/C=C2/SC(=Nc3ccccc3)N(NC(=O)Cc3ccccc3)C2=O)cc1` are > 214 µM and 148 µM.
For `N#C/C(=C\c1cccc(N)c1)c1ccccc1` the same measures were > 200 µM and 57.5 µM.
The corresponding values for `O=NN1CCCS1(=O)=O` are > 200 µM and > 200 µM.
As for `CC1=NC2c3c(-c4ccc(Cl)cc4)cn(-c4ccc(C)cc4)c3N=CN2N1` (stereo not drawn), the EC50 is > 100 µM and the IC50 was > 100 µM.
With `CC1CNC(c2ccc(NC(=O)Nc3cc(C(=O)Nc4ccc(C5=NC(C)CN5)cc4)ccc3C(=O)Nc3ccc(C4=NC(C)CN4)cc3)cc2)=N1` (stereo not drawn), the EC50 was > 100 µM and the IC50 is > 100 µM.
On to `CCCCOP(=O)(OCCCC)c1ccccc1`, for which the EC50 was 0.0631 µM and the IC50 is > 200 µM.
The corresponding values for `COc1ccc(/C=C2\N=C(N/N=C\C(O)C(O)C(O)C(O)CO)NC2=O)cc1` (stereo not drawn) are > 200 µM and 107 µM.
The corresponding values for `N.N.N.N.N.N#Cc1nn[n-]n1.[Cl-].[Co+3]` are > 813 µM and > 813 µM.
For `C#CC(O)Cc1ccc(OC)c2occc12` (stereo not drawn) the same measures were > 200 µM and 117 µM.
`O=c1cc2ccc(Cl)cc2n[nH]1`: the EC50 is > 85.1 µM and the IC50 was > 85.1 µM.
`O=C(O)C[C@@H](Cl)[C@H](NC(=O)OCc1ccccc1)C(=O)O`: the result was inactive.
Regarding `O=C1c2ccccc2C(=O)c2sccc21`, the EC50 was > 200 µM and the IC50 was 7.24 µM.
With `CCCCCCCC/C=C\CCCCCCCCOP(=O)(O)OCCC=C(c1cc(Cl)c(O)c(C(=O)O)c1)c1cc(Cl)c(O)c(C(=O)O)c1`, the EC50 is > 77.6 µM and the IC50 amounted to 69.2 µM.
The corresponding values for `CC(=O)N1CC(C)(C)c2c1cc(C)c(O)c2C` are > 200 µM and 132 µM.
For `CNC(=O)C1CCCN1C(=O)C(Cc1cnc[nH]1)NC(=O)C1CCC(=O)N1` (stereo not drawn) the same measures were > 200 µM and > 200 µM.
On to `COc1cc2c3c(c1OC)/C(=N/OS(=O)(=O)c1ccc(C)cc1)CC3N(S(=O)(=O)c1ccc(C)cc1)CC2` (stereo not drawn), for which the outcome was inactive.
`CCOC(=O)CN=C1NNS(=O)(=O)c2ccccc21`: the EC50 was > 200 µM and the IC50 was 110 µM.
With `COc1ccc(C2SCC(=O)N2N=C2NC(=O)CC(=O)N2)cc1` (stereo not drawn), the EC50 is > 200 µM and the IC50 was > 200 µM.
